The values that follow come from patent publication US9499550B2 (BRISTOL-MYERS SQUIBB COMPANY, priority 2012, dated 2016).

Experiment [1] concerns HCV genotype 1a (H77 strain) replicon in HUH-7 cells. Kind of experiment: HCV replicon luciferase reporter assay, genotype 1a. As to conditions: Hepatitis C virus, Huh-7, 72 h, HCV genotype 1a replicon luciferase assay, 3 days incubation, range class, read-out: LE_1a (EC50, range). The format is cell-based. In short, it runs like this:
(§1)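 Replicon inhibition for both genotypes was measured as Renilla luciferase signal (EnduRen, 7.5 μM final, 2 h) after 3-day, 37° C exposure of replicon-bearing HUH-7 cells in 4% FCS DMEM, 0.5% DMSO. The 1b construct carries S1179I; the 1a H77 construct carries P1496L and S2204I. Twenty-point, 3-fold dilutions were fitted four-parametrically for EC50, and CC50 was taken from multiplexed Cell Titer-Blue.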
Background: A replicon is a self-replicating genome or part of one, used to study replication in cells.

For experiment [2], the system named is HCV genotype 1b (Con1) replicon in HUH-7 cells. Kind of experiment: HCV replicon luciferase reporter assay, genotype 1b. The format is cell-based. As to conditions: Hepatitis C virus, Huh-7, 72 h, HCV genotype 1b replicon luciferase assay, 3 days incubation, range class, read-out: LE_1b (EC50, range). In short, it runs like this:
as §1

As usually defined, the EC50 is the concentration giving half of the maximal effect. For `COc1ccc2c(O[C@@H]3C[C@H]4C(=O)N[C@]5(C(=O)NS(=O)(=O)C6(C)CC6)C[C@H]5/C=C\CC[C@H](C)C[C@@H](C)[C@H](NC(=O)OC(C)(C)C(F)(F)F)C(=O)N4C3)nc(N(C)C)nc2c1` [Compound 3003, 1,1,1-trifluoro-2-methylpropan-2-yl((2R,6S,7R,9S,13aS,14aR,16aS,Z)-2-((2-(dimethylamino)-7-methoxyquinazolin-4-yl)oxy)-7,9-dimethyl-14a-(((1-methylcyclopropyl)sulfonyl)carbamoyl)-5,16-dioxo-1,2,3,5,6,7,8,9,10,11,13a,14,14a,15,16,16a-hexadecahydrocyclopropa[e]pyrrolo[1,2-a][1,4]diazacyclopentadecin-6-yl)carbamate], the EC50 in experiment [1] and in experiment [2] was less than 5.46 nM throughout.

Turning to `COc1ccc2c(O[C@@H]3C[C@H]4C(=O)N[C@]5(C(=O)NS(=O)(=O)C6(C)CC6)C[C@H]5/C=C\CC[C@@H](C)C[C@@H](C)[C@H](NC(=O)OC(C)(C)C(F)(F)F)C(=O)N4C3)nc(N(C)C)nc2c1` [Compound 3004, 1,1,1-trifluoro-2-methylpropan-2-yl((2R,6S,7R,9R,13aS,14aR,16aS,Z)-2-((2-(dimethylamino)-7-methoxyquinazolin-4-yl)oxy)-7,9-dimethyl-14a-(((1-methylcyclopropyl)sulfonyl)carbamoyl)-5,16-dioxo-1,2,3,5,6,7,8,9,10,11,13a,14,14a,15,16,16a-hexadecahydrocyclopropa[e]pyrrolo[1,2-a][1,4]diazacyclopentadecin-6-yl)carbamate], the half-maximal effective concentration (EC50) in experiment [1] and in experiment [2] was less than 5.46 nM throughout.

With `COc1ccc2c(O[C@@H]3C[C@H]4C(=O)N[C@]5(C(=O)NS(=O)(=O)C6(CF)CC6)C[C@H]5/C=C\CC[C@H](C)C[C@@H](C)[C@H](NC(=O)OC(C)(C)C)C(=O)N4C3)nc(N(C)C)nc2c1` [Compound 3005, tert-butyl ((2R,6S,7R,9S,13aS,14aR,16aS,Z)-2-((2-(dimethylamino)-7-methoxyquinazolin-4-yl)oxy)-14a-(((1-(fluoromethyl)cyclopropyl)sulfonyl)carbamoyl)-7,9-dimethyl-5,16-dioxo-1,2,3,5,6,7,8,9,10,11,13a,14,14a,15,16,16a-hexadecahydrocyclopropa[e]pyrrolo[1,2-a][1,4]diazacyclopentadecin-6-yl)carbamate], the 50% effective concentration (EC50) in experiment [1] and in experiment [2] was 4.82 to 103 nM in each case.

For the molecule `COc1ccc2c(O[C@@H]3C[C@H]4C(=O)N[C@]5(C(=O)NS(=O)(=O)C6(CF)CC6)C[C@H]5/C=C\CC[C@@H](C)C[C@@H](C)[C@H](NC(=O)OC(C)(C)C)C(=O)N4C3)nc(N(C)C)nc2c1` [Compound 3006, tert-butyl ((2R,6S,7R,9R,13aS,14aR,16aS,Z)-2-((2-(dimethylamino)-7-methoxyquinazolin-4-yl)oxy)-14a-(((1-(fluoromethyl)cyclopropyl)sulfonyl)carbamoyl)-7,9-dimethyl-5,16-dioxo-1,2,3,5,6,7,8,9,10,11,13a,14,14a,15,16,16a-hexadecahydrocyclopropa[e]pyrrolo[1,2-a][1,4]diazacyclopentadecin-6-yl)carbamate], the half-maximal effective concentration (EC50) in experiment [1] and in experiment [2] was less than 5.46 nM each time.

As to `COc1ccc2c(O[C@@H]3C[C@H]4C(=O)N[C@]5(C(=O)NS(=O)(=O)C6(C)CC6)C[C@H]5/C=C\CC[C@H](C)C[C@@H](C)[C@H](NC(=O)OC(C)(C)C)C(=O)N4C3)nc(-c3ccc(OC(C)C)cc3)nc2c1` [Compound 3007, tert-butyl ((2R,6S,7R,9S,13aS,14aR,16aS,Z)-2-((2-(4-isopropoxyphenyl)-7-methoxyquinazolin-4-yl)oxy)-7,9-dimethyl-14a-(((1-methylcyclopropyl)sulfonyl)carbamoyl)-5,16-dioxo-1,2,3,5,6,7,8,9,10,11,13a,14,14a,15,16,16a-hexadecahydrocyclopropa[e]pyrrolo[1,2-a][1,4]diazacyclopentadecin-6-yl)carbamate], the half-maximal effective concentration (EC50) in experiment [1] and in experiment [2] was less than 5.46 nM throughout.

Regarding `COc1ccc2c(O[C@@H]3C[C@H]4C(=O)N[C@]5(C(=O)NS(=O)(=O)C6(C)CC6)C[C@H]5/C=C\CC[C@@H](C)C[C@@H](C)[C@H](NC(=O)OC(C)(C)C)C(=O)N4C3)nc(-c3ccc(OC(C)C)cc3)nc2c1` [Compound 3008, tert-butyl ((2R,6S,7R,9R,13aS,14aR,16aS,Z)-2-((2-(4-isopropoxyphenyl)-7-methoxyquinazolin-4-yl)oxy)-7,9-dimethyl-14a-(((1-methylcyclopropyl)sulfonyl)carbamoyl)-5,16-dioxo-1,2,3,5,6,7,8,9,10,11,13a,14,14a,15,16,16a-hexadecahydrocyclopropa[e]pyrrolo[1,2-a][1,4]diazacyclopentadecin-6-yl)carbamate], the half-maximal effective concentration (EC50) in experiment [1] and in experiment [2] was less than 5.46 nM each time.

On to `COc1ccc2c(O[C@@H]3C[C@H]4C(=O)N[C@]5(C(=O)NS(=O)(=O)C6(CF)CC6)C[C@H]5/C=C\CC[C@H](C)C[C@@H](C)[C@H](NC(=O)OC(C)(C)C(F)(F)F)C(=O)N4C3)nc(N(C)C)nc2c1` [Compound 3009, 1,1,1-trifluoro-2-methylpropan-2-yl((2R,6S,7R,9S,13aS,14aR,16aS,Z)-2-((2-(dimethylamino)-7-methoxyquinazolin-4-yl)oxy)-14a-(((1-(fluoromethyl)cyclopropyl)sulfonyl)carbamoyl)-7,9-dimethyl-5,16-dioxo-1,2,3,5,6,7,8,9,10,11,13a,14,14a,15,16,16a-hexadecahydrocyclopropa[e]pyrrolo[1,2-a][1,4]diazacyclopentadecin-6-yl)carbamate], for which the EC50 in experiment [1] and in experiment [2] was 4.82 to 103 nM throughout.

In the case of `COc1ccc2c(O[C@@H]3C[C@H]4C(=O)N[C@]5(C(=O)NS(=O)(=O)C6(CF)CC6)C[C@H]5/C=C\CC[C@@H](C)C[C@@H](C)[C@H](NC(=O)OC(C)(C)C(F)(F)F)C(=O)N4C3)nc(N(C)C)nc2c1` [Compound 3010, 1,1,1-trifluoro-2-methylpropan-2-yl((2R,6S,7R,9R,13aS,14aR,16aS,Z)-2-((2-(dimethylamino)-7-methoxyquinazolin-4-yl)oxy)-14a-(((1-(fluoromethyl)cyclopropyl)sulfonyl)carbamoyl)-7,9-dimethyl-5,16-dioxo-1,2,3,5,6,7,8,9,10,11,13a,14,14a,15,16,16a-hexadecahydrocyclopropa[e]pyrrolo[1,2-a][1,4]diazacyclopentadecin-6-yl)carbamate], the EC50 in experiment [1] and in experiment [2] was less than 5.46 nM in each case.

In the case of `COc1ccc2c(O[C@@H]3C[C@H]4C(=O)N[C@]5(C(=O)NS(=O)(=O)C6(C)CC6)C[C@H]5/C=C\CC[C@H](C)C[C@@H](C)[C@H](NC(=O)OC(C)(C)C(F)(F)F)C(=O)N4C3)nc(-c3ccc(OC(C)C)cc3)nc2c1` [Compound 3011, 1,1,1-trifluoro-2-methylpropan-2-yl((2R,6S,7R,9S,13aS,14aR,16aS,Z)-2-((2-(4-isopropoxyphenyl)-7-methoxyquinazolin-4-yl)oxy)-7,9-dimethyl-14a-(((1-methylcyclopropyl)sulfonyl)carbamoyl)-5,16-dioxo-1,2,3,5,6,7,8,9,10,11,13a,14,14a,15,16,16a-hexadecahydrocyclopropa[e]pyrrolo[1,2-a][1,4]diazacyclopentadecin-6-yl)carbamate], the values for the EC50 in experiment [1] and in experiment [2] were 4.82 to 103 nM and less than 5.46 nM, respectively.

For `COc1ccc2c(O[C@@H]3C[C@H]4C(=O)N[C@]5(C(=O)NS(=O)(=O)C6(C)CC6)C[C@H]5/C=C\CC[C@@H](C)C[C@@H](C)[C@H](NC(=O)OC(C)(C)C(F)(F)F)C(=O)N4C3)nc(-c3ccc(OC(C)C)cc3)nc2c1` [Compound 3012, 1,1,1-trifluoro-2-methylpropan-2-yl((2R,6S,7R,9R,13aS,14aR,16aS,Z)-2-((2-(4-isopropoxyphenyl)-7-methoxyquinazolin-4-yl)oxy)-7,9-dimethyl-14a-(((1-methylcyclopropyl)sulfonyl)carbamoyl)-5,16-dioxo-1,2,3,5,6,7,8,9,10,11,13a,14,14a,15,16,16a-hexadecahydrocyclopropa[e]pyrrolo[1,2-a][1,4]diazacyclopentadecin-6-yl)carbamate], the EC50 in experiment [1] and in experiment [2] was less than 5.46 nM in each case.

Consider `COc1ccc2c(O[C@@H]3C[C@H]4C(=O)N[C@]5(C(=O)NS(=O)(=O)C6(CF)CC6)C[C@H]5/C=C\CC[C@H](C)C[C@@H](C)[C@H](NC(=O)OC(C)(C)C)C(=O)N4C3)nc(N3CCCC3)nc2c1` [Compound 3013, tert-butyl ((2R,6S,7R,9S,13aS,14aR,16aS,Z)-14a-(((1-(fluoromethyl)cyclopropyl)sulfonyl)carbamoyl)-2-((7-methoxy-2-(pyrrolidin-1-yl)quinazolin-4-yl)oxy)-7,9-dimethyl-5,16-dioxo-1,2,3,5,6,7,8,9,10,11,13a,14,14a,15,16,16a-hexadecahydrocyclopropa[e]pyrrolo[1,2-a][1,4]diazacyclopentadecin-6-yl)carbamate], for which the EC50 in experiment [1] and in experiment [2] was 4.82 to 103 nM in each case.

For `COc1ccc2c(O[C@@H]3C[C@H]4C(=O)N[C@]5(C(=O)NS(=O)(=O)C6(CF)CC6)C[C@H]5/C=C\CC[C@@H](C)C[C@@H](C)[C@H](NC(=O)OC(C)(C)C)C(=O)N4C3)nc(N3CCCC3)nc2c1` [Compound 3014, tert-butyl ((2R,6S,7R,9R,13aS,14aR,16aS,Z)-14a-(((1-(fluoromethyl)cyclopropyl)sulfonyl)carbamoyl)-2-((7-methoxy-2-(pyrrolidin-1-yl)quinazolin-4-yl)oxy)-7,9-dimethyl-5,16-dioxo-1,2,3,5,6,7,8,9,10,11,13a,14,14a,15,16,16a-hexadecahydrocyclopropa[e]pyrrolo[1,2-a][1,4]diazacyclopentadecin-6-yl)carbamate], the EC50 in experiment [1] was 4.82 to 103 nM; in experiment [2] it was less than 5.46 nM.
